Patent US10131679B2, “Substituted dihydropyrrolopyrazole compound” (UBE INDUSTRIES, LTD., priority 2014, dated 2018)

Assays:
[1] = tested on: mouse imiquimod-induced psoriasis model; experiment: Ear thickening suppression test using mouse imiquimod-induced psoriasis model; type: in vivo; details: topical, 120 h, thickness measured on day 5, BALB/c mice, read-out: rate of inhibition of increase in right auricle thickness; for inhibition in vivo at 0.01 %: application of a 0.01% methanol solution for 4 days; for inhibition in vivo at 1 %: application of a 1% solution in methanol for 4 days
Method: Ear Thickening Suppression Test Using Mouse Imiquimod-Induced Psoriasis Model
An imiquimod-induced psoriasis model test was carried out by modifying the method of Leslie van der Fits et al. (J. Immunol. 182, 5836 (2009)). BALB/c mice were used (female, supplied by Charles River Laboratories Japan, Inc.) as laboratory animals. On the start day of the test, the thicknesses of the right auricles of the mice were measured with a thickness gauge (model SMD-565J manufactured by TECLOCK Corp.). A test compound solution or only a solvent was applied or orally administered, and after 60 minutes, 5 mg of imiquimod (Beselna Cream 5% manufactured by Mochida Pharmaceutical Co., Ltd.) was applied to the insides of the right auricles. The test compound solution or solvent administration and the imiquimod application were carried out for 4 days, and the thicknesses of the right auricles were measured again on day 5. When increase in the thicknesses of the right auricles of the solvent-administered group on day 5 was defined as 100%, the rate of inhibition of increase (%) at each dose of the test compound was calculated.

[2] = biological target: T1, PAK4 (Homo sapiens, UniProt O96013); experiment: PAK4 enzyme inhibition test; type: biochemical; details: Ki=IC50/(1+S/Km); 33P bound to MBP, [γ-33P]ATP, 30° C. for 20 minutes; read-out: Ki value of PAK4 inhibitory activity
T1 construct: purchased Invitrogen Corp. PV4212
Method: PAK4 Enzyme Inhibition Test
The preparation of a buffer solution was performed by mixing a trishydroxyaminomethane buffer solution (Tris buffer solution) (pH 7.5), DTT, Triton X-100, MgCl2, ethylene glycol bis(β-aminoethyl ether)-N,N,N′,N′-tetraacetic acid (EGTA), (3-glycerol phosphate, and sodium orthovanadate(V). A 40 μM [γ-^33P]ATP solution was used by diluting a 10 mM ATP solution and a commercially available [γ-^33P]ATP solution (manufactured by PerkinElmer, Inc., Code No. NEG-302H) with the buffer solution. A PAK4 solution was used by diluting commercially available PAK4 (manufactured by Invitrogen Corp., Catalog No. PV4212) with the buffer solution. A substrate solution was used by diluting MBP with the buffer solution. As for the preparation of a reaction solution, the buffer solution, the 40 μM [γ-^33P]ATP solution, the PAK4 solution, and the substrate solution were mixed at 4° C. to obtain a reaction solution.
(§1) PAK4 enzyme reaction was performed by adding 5 μL of a test compound solution prepared with 10% DMSO/90% injectable distilled water, and 45 μL of the reaction solution in a 1.5 mL microtube at 4° C. and reacting in the microtube at 30° C. for 20 minutes in a water bath incubator. After the reaction, a 10% aqueous TCA solution was added to each microtube while cooled to 4° C., and mixed to terminate the reaction. The resultant was left standing at 4° C. for 10 minutes and then centrifuged in a centrifuge, and the supernatant was discarded. Next, a 2% aqueous TCA solution was added, mixed, and then centrifuged in a centrifuge, and the supernatant was discarded. This washing operation was performed twice. After the washing, precipitates were dissolved in a 1 N aqueous NaOH solution, and the radioactivity was measured with a liquid scintillation counter.
The calculation of the inhibitory activity of the test compound against PAK4 was performed as a test compound concentration inhibiting 50% of the amount of ^33P bound to MBP (IC50 value) by using EXSUS (version 8.0.0 or version 8.0.1, manufactured by CAC Exicare Corp.).
(§2) The calculation of a Ki value was performed according to the following calculation expression. S means the concentration of ATP contained in the reaction solution, and Km means a Michaelis-Menten constant. Ki=IC50/(1+S/Km)

[3] = tested on: human large intestine cancer cell line (HCT-116); experiment: Human large intestine cancer (HCT-116) cell growth inhibition test; type: cell-based; details: 72 h, HCT-116, culture for 3 days, sulforhodamine B absorbance
In short: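 HCT-116 cells seeded at 1.0×10^3 cells/well in McCoy's 5a with 10% FBS, then exposed to compound (0.1% DMSO final) for 3 days. Growth measured by sulforhodamine B absorbance; IC50 derived from concentration-inhibition data.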

[4] = biological target: T2, CDK2 (Homo sapiens, UniProt P24941); experiment: CDK2 enzyme inhibition test; type: biochemical; details: Ki=IC50/(1+S/Km); 33P bound to MBP, [γ-33P]ATP, 30° C. for 20 minutes; read-out: Ki value of CDK2 inhibitory activity
T2 construct: purchased Invitrogen Corp. PV3267
Method: CDK2 Enzyme Inhibition Test
The preparation of a buffer solution was performed by mixing a HEPES buffer solution (pH 7.4), DTT, Triton X-100, and MgCl2. A 500 μM [γ-^33P]ATP solution was used by diluting a 10 mM ATP solution and a commercially available [γ-^33P]ATP solution (manufactured by PerkinElmer, Inc., Code No. NEG-302H) with the buffer solution. A CDK2 solution was used by diluting commercially available CDK2 (manufactured by Invitrogen Corp., Catalog No. PV3267) with the buffer solution. A substrate solution was used by diluting MBP with the buffer solution. As for the preparation of a reaction solution, the buffer solution, the 500 μM [γ-^33P]ATP solution, the CDK2 solution, and the substrate solution were mixed at 4° C. to obtain a reaction solution.
as §1, with “CDK2” for “PAK4”, “mixed thereto,” for “mixed,”
The calculation of the inhibitory activity of the test compound against CDK2 was performed as a test compound concentration inhibiting 50% of the amount of ^33P bound to MBP (IC50 value) by using EXSUS (version 8.0.0 or version 8.0.1, manufactured by CAC Exicare Corp.).
as §2

[5] = biological target: T3, CDK7 (Homo sapiens, UniProt P50613); experiment: CDK7 enzyme inhibition test; type: biochemical; details: Ki=IC50/(1+S/Km); 33P bound to MBP, [γ-33P]ATP, 30° C. for 20 minutes; read-out: Ki value of CDK7 inhibitory activity
T3 construct: purchased Carna Biosciences, Inc. 04-108
In short: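 Recombinant CDK7 with MBP substrate and [γ-33P]ATP (500 μM solution, diluted into the mix) in HEPES pH 7.4/DTT/Triton X-100/MgCl2, 20 min at 30 °C. TCA-precipitated 33P-MBP counted by scintillation; IC50 from inhibition, Ki = IC50/(1+S/Km).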

T3 sequence (P50613 whole entry): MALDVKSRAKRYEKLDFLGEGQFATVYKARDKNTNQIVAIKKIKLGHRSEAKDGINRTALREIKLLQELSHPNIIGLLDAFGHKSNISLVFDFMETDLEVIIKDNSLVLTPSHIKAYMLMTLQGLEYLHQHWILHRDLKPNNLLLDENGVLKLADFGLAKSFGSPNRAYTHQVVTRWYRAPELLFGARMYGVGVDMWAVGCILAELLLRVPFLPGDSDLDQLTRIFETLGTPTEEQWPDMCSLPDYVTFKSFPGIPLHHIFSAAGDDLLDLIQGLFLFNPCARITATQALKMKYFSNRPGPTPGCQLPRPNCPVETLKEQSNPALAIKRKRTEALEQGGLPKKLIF
T3 sequence (P51946 whole entry partner): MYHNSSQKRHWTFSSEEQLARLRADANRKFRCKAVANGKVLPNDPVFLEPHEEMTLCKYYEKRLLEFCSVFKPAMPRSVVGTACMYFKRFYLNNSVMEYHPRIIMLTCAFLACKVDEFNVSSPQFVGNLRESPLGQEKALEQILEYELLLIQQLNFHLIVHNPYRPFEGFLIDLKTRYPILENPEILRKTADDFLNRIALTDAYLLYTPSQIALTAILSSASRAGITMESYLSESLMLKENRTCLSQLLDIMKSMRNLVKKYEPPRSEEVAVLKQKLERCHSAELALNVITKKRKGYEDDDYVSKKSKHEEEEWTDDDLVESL
T3 sequence (P51948 whole entry partner): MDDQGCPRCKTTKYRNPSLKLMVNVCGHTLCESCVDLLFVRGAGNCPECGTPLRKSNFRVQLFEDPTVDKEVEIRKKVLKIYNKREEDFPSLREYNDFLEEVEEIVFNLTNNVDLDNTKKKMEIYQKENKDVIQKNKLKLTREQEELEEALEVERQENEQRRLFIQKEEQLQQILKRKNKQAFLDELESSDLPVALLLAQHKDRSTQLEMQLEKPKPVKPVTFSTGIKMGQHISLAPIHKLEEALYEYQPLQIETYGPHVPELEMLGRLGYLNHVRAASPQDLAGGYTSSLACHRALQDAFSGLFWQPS
T1 sequence (O96013 whole entry): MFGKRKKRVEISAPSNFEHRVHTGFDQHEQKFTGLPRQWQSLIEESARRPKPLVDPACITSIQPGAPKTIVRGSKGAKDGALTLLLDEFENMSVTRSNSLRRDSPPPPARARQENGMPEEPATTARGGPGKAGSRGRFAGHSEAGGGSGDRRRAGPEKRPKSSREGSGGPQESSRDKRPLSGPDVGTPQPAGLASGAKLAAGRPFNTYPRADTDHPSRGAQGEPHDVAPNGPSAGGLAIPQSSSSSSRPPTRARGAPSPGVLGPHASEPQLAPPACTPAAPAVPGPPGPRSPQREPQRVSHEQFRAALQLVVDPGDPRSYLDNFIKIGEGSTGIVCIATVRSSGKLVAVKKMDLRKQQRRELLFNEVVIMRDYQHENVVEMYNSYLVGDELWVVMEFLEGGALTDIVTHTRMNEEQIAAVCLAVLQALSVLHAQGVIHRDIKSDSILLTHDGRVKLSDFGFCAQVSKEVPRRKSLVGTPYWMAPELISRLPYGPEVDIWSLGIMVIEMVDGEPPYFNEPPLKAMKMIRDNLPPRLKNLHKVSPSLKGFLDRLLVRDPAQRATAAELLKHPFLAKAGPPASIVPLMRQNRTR

COCC(C)(C)C(NC(=O)N1Cc2c(NC(=O)C3([Si](C)(C)C)CCC3)n[nH]c2C1(C)C)c1ccccc1 (stereo not drawn) [IV-676, N-(3-Methoxy-2,2-dimethyl-1-phenylpropyl)-6,6-dimethyl-3-[1-(trimethylsilyl)cyclobutanecarboxamido]-4,6-dihydropyrrolo[3,4-c]pyrazole-5(1H)-carboxamide]
inhibition in vivo at 0.01 % [1]: ≥ 50%

CCCCO[C@@H](C(=O)N1Cc2c(NC(=O)C3([Si](C)(C)C)CCC3)n[nH]c2C1(C)C)c1ccccc1 [IV-1200, (R)—N-[5-(2-Butoxy-2-phenylacetyl)-6,6-dimethyl-1,4,5,6-tetrahydropyrrolo[3,4-c]pyrazol-3-yl]-1-(trimethylsilyl)cyclobutanecarboxamide]
inhibition in vivo at 0.01 % [1]: ≥ 50%

C[C@@H](Oc1ccccc1)C(=O)N1Cc2c(NC(=O)C3([Si](C)(C)C)CCC3)n[nH]c2C1(C)C [IV-1258, (R)—N-[6,6-Dimethyl-5-(2-phenoxypropanoyl)-1,4,5,6-tetrahydropyrrolo[3,4-c]pyrazol-3-yl]-1-(trimethylsilyl)cyclobutanecarboxamide]
Ki [2]: ≥ 0.5 µM | IC50 [3]: ≤ 0.5 µM | Ki [4]: ≥ 1 µM | Ki [5]: ≤ 0.05 µM

CC(=O)OC[C@@H](NC(=O)N1Cc2c(NC(=O)C3([Si](C)(C)C)CCC3)n[nH]c2C1(C)C)c1ccccc1 [V-1442, (S)-2-{6,6-Dimethyl-3-[1-(trimethylsilyl)cyclobutanecarboxamido]-1,4,5,6-tetrahydropyrrolo[3,4-c]pyrazole-5-carboxamido}-2-phenylethyl acetate]
inhibition in vivo at 1 % [1]: ≥ 50%

CCC(=O)OC[C@@H](NC(=O)N1Cc2c(NC(=O)C3([Si](C)(C)C)CCC3)n[nH]c2C1(C)C)c1ccccc1 [V-1446, (S)-2-{6,6-Dimethyl-3-[1-(trimethylsilyl)cyclobutanecarboxamido]-1,4,5,6-tetrahydropyrrolo[3,4-c]pyrazole-5-carboxamido}-2-phenylethyl propionate]
inhibition in vivo at 1 % [1]: ≥ 50%

CC(C)C(=O)OC[C@@H](NC(=O)N1Cc2c(NC(=O)C3([Si](C)(C)C)CCC3)n[nH]c2C1(C)C)c1ccccc1 [V-1454, (S)-2-{6,6-Dimethyl-3-[1-(trimethylsilyl)cyclobutanecarboxamido]-1,4,5,6-tetrahydropyrrolo[3,4-c]pyrazole-5-carboxamido}-2-phenylethyl isobutanoate]
inhibition in vivo at 1 % [1]: ≥ 50%

CC(C)(C)C(=O)OC[C@@H](NC(=O)N1Cc2c(NC(=O)C3([Si](C)(C)C)CCC3)n[nH]c2C1(C)C)c1ccccc1 [V-1462, (S)-2-{6,6-Dimethyl-3-[1-(trimethylsilyl)cyclobutanecarboxamido]-1,4,5,6-tetrahydropyrrolo[3,4-c]pyrazole-5-carboxamido}-2-phenylethyl pivalate]
inhibition in vivo at 1 % [1]: ≥ 50%

CCCCCCCC(=O)OC[C@@H](NC(=O)N1Cc2c(NC(=O)C3([Si](C)(C)C)CCC3)n[nH]c2C1(C)C)c1ccccc1 [V-1470, (S)-2-{6,6-Dimethyl-3-[1-(trimethylsilyl)cyclobutanecarboxamido]-1,4,5,6-tetrahydropyrrolo[3,4-c]pyrazole-5-carboxamido}-2-phenylethyl octanoate]
inhibition in vivo at 1 % [1]: ≥ 50%

CCCCCCCCCCCC(=O)OC[C@@H](NC(=O)N1Cc2c(NC(=O)C3([Si](C)(C)C)CCC3)n[nH]c2C1(C)C)c1ccccc1 [V-1474, (S)-2-{6,6-Dimethyl-3-[1-(trimethylsilyl)cyclobutanecarboxamido]-1,4,5,6-tetrahydropyrrolo[3,4-c]pyrazole-5-carboxamido}-2-phenylethyl dodecanoate]
inhibition in vivo at 1 % [1]: ≥ 50%
